Experimental data reported in patent US12071414B2, “Apelin receptor agonists and methods of use thereof” (Sanford Burnham Prebys Medical Discovery Institute, priority 2015, dated 2024).

target: T1, human apelin receptor (APJ, AGTRL-one, APLNR) (Homo sapiens, UniProt P35414); test: cell-based cAMP TR-FRET assay of apelin receptor activation; conditions: CHO cells expressing human APJ, forskolin-stimulated cAMP, 0.5 h incubation, 50% of control (apelin-13, 1 nM) response; read-out: Potency Category (EC50)
T1 construct: host or cells: Chinese hamster ovary cells, stably integrated receptor
T1 sequence (P35414 1-380): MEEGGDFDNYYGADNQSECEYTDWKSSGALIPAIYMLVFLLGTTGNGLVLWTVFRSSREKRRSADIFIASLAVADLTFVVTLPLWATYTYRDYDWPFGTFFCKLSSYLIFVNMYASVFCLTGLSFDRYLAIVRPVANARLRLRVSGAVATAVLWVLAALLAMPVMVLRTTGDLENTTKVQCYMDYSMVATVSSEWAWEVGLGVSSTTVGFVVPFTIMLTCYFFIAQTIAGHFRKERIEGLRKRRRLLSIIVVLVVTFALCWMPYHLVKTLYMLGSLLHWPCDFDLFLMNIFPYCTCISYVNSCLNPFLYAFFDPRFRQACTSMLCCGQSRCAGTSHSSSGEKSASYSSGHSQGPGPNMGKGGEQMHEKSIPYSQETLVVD
Procedure: The assays disclosed herein were performed using cell lines from DiscoveX, Inc. Biological activity was determined to the cell—based assay. This assay detects activation of the receptor by reporting on intracellular cyclic adenosine monophosphate (cAMP) level. Chinese hamster ovary cells engineered to express the stably integrated human apelin receptor (APJ, AGTRL—one, APLNR), pleaded into the wells of the microtiter plate. Cells were stimulated with […] to increase intracellular cyclic AMP. Immediately following, compounds were added to the range of final concentrations 0.0-100 μM, in DMSO (not to exceed a final DMSO concentration greater than 1% ν/ν), and allowed to incubate with the cells for 0.5 h. At the end of the incubation, cells were lysed to stop APJ signaling and cAMP was quantified using a commercially available competitive immunoassay kit that applies homogenous time—resolved florescence energy transfer (TR—FRET). The assay is based on the competition between a europium (Eu) chelate—labeled cAMP donor tracer and cellular cAMP for binding sites on a cAMP—specific monoclonal antibody labeled with an acceptor fluorophore. When antibodies are bound to the cAMP tracer light emissions at 320 nm stimulate the energy transfer from the donor to the acceptor, which in turn emits light at 665 nm. In the presence of competitive unlabeled cAMP (derived from the activity of the receptor or forskolin-stimulated production of cAMP), the labelled cAMP tracer is dissociated from the cAMP antibody, resulting in a loss of FRET signal. The amount of light emitted by the FRET is inversely proportional to the cAMP generated by the cell/receptor system. Potency and efficacy at APJ are reported in reference to the canonical APJ receptor agonist apelin—13 when tested at 1 nM. […] Compound efficacy (% response) is reported as a percentage of the maximal apein-13 response at 1 nM (control). Potencies were calculated by fitting a […] logistic curve to concentration response consisting of at least 10 discrete data points spanning effective range of the compounds in the cell-based assay that measures cAMP. […] Category B is 200-500 nM; Category C is 100-200 nM; Category D is 50-100 nM; and Category E is <50 nM.

| SMILES | EC50 |
| --- | --- |
| COc1cc2nc(NC(=O)C(Oc3ccc(C#N)cc3)c3cccc(S(=O)(=O)c4ccc(F)cc4)c3)sc2cc1OC (stereo not shown) | 200 to 500 nM |
| CCS(=O)(=O)c1ccc(C(Oc2ccc(C#N)cc2)C(=O)Nc2nc3ccc4c(c3s2)OCCO4)cc1 (stereo not shown) | 50 to 100 nM |
| CCS(=O)(=O)c1ccc(C(C(=O)Nc2nc3cc(OC)c(OC)cc3s2)C(C)C)cc1 (stereo not shown) | 200 to 500 nM |
| COC(=O)c1ccc(OC(C(=O)Nc2nc3cc(OC)c(OC)cc3s2)c2ccc(C#N)cc2)cc1 (stereo not shown) | < 50 nM |
| CCN(CC)c1ccc2sc(NC(=O)C(Oc3ccc(C#N)cc3)c3ccc(S(=O)(=O)CC)cc3)nc2c1 (stereo not shown) | > 500 nM |
| CCS(=O)(=O)c1ccc(C(Oc2ccc(C#N)cc2)C(=O)Nc2nc3nc(OCCOC)c(OC)cc3s2)cc1 (stereo not shown) | > 500 nM |
| CCS(=O)(=O)c1ccc(C(CC2CC2)C(=O)Nc2nc3cc(OC)c(OC)cc3s2)cc1 (stereo not shown) | > 500 nM |
| CCS(=O)(=O)c1ccc(C(OC)C(=O)Nc2nc3cc(OC)c(OC)cc3s2)cc1 (stereo not shown) | > 500 nM |
| COCCOc1ccc(OC(C(=O)Nc2nc3cc(OC)c(OC)cc3s2)c2ccc(C#N)cc2)cc1 (stereo not shown) | 50 to 100 nM |
| COc1cc2nc(NC(=O)Cc3ccccc3C(=O)N(C)C)sc2cc1OC | > 500 nM |
| CCS(=O)(=O)c1ccc(C(Oc2ccc(C#N)cc2)C(=O)Nc2nc3cc(OC)c(OC)cc3s2)cc1 (stereo not shown) | < 50 nM |
| COc1cc2nc(NC(=O)C(Oc3ccc(C#N)cc3)c3cccc(S(=O)(=O)c4ccc(Cl)cc4)c3)sc2cc1OC (stereo not shown) | 200 to 500 nM |
| CCS(=O)(=O)c1ccc(C(Oc2ccc(OC)cc2)C(=O)Nc2nc3ccc4c(c3s2)OCO4)cc1 (stereo not shown) | > 500 nM |
| CCS(=O)(=O)c1ccc(C(Oc2ccc(C#N)cc2C(F)(F)F)C(=O)Nc2nc3cc(OC)c(OC)cc3s2)cc1 (stereo not shown) | 100 to 200 nM |
| CCS(=O)(=O)c1ccc(C(Oc2ccc(OC)cc2)C(=O)Nc2nc3ccc(N4CCN(C)CC4)cc3s2)cc1 (stereo not shown) | > 500 nM |
| CCS(=O)(=O)c1ccc(C(Oc2cccc(C#N)c2)C(=O)Nc2nc3cc(OC)c(OC)cc3s2)cc1 (stereo not shown) | > 500 nM |
| CCS(=O)(=O)c1ccc(C(Oc2ccc(C#N)cc2)C(=O)Nc2nc3cc(OC)c(C)cc3s2)cc1 (stereo not shown) | 200 to 500 nM |

| SMILES | EC50 |
| --- | --- |
| COc1cc2nc(NC(=O)C(Oc3ccc(C#N)cc3)c3ccc(S(=O)(=O)C(C)C)cc3)sc2cc1OC (stereo not shown) | < 50 nM |
| CCS(=O)(=O)c1ccc(C(Nc2cccc(OC)c2)C(=O)Nc2nc3cc(OC)c(OC)cc3s2)cc1 (stereo not shown) | > 500 nM |
| COc1ccc(C(Oc2ccc(C#N)cc2)C(=O)Nc2nc3cc(OC)c(OC)cc3s2)cc1 (stereo not shown) | < 50 nM |
| COc1cc2nc(NC(=O)C(Oc3ccc(C(=O)N4CCNCC4)cc3)c3ccc(C#N)cc3)sc2cc1OC (stereo not shown) | < 50 nM |
| COc1cc2nc(NC(=O)C(Oc3ccc(C#N)cc3)c3ccc(OCCN4CCCCC4)cc3)sc2cc1OC (stereo not shown) | 200 to 500 nM |
| COCCS(=O)(=O)c1ccc(C(Oc2ccc(C#N)cc2)C(=O)Nc2nc3cc(OC)c(OC)cc3s2)cc1 (stereo not shown) | < 50 nM |
| CCS(=O)(=O)c1ccc(C(Oc2ccccc2C)C(=O)Nc2nc3cc(OC)c(OC)cc3s2)cc1 (stereo not shown) | > 500 nM |
| CCS(=O)(=O)c1ccc(C(NC2CCCC2)C(=O)Nc2nc3cc(OC)c(OC)cc3s2)cc1 (stereo not shown) | > 500 nM |
| COc1cc2nc(NC(=O)C(Oc3ccc(C#N)cc3)c3ccc([N+](=O)[O-])cc3)sc2cc1OC (stereo not shown) | < 50 nM |
| COc1cc2nc(NC(=O)C(Oc3ccc(C(=O)N4CCN(C)CC4)cc3)c3ccc(C#N)cc3)sc2cc1OC (stereo not shown) | 50 to 100 nM |
| CCS(=O)(=O)c1ccc(C(OC(C)C)C(=O)Nc2nc3cc(OC)c(OC)cc3s2)cc1 (stereo not shown) | > 500 nM |
| CCS(=O)(=O)c1ccc(CC(=O)Nc2nc3cc(OC)c(OC)cc3s2)cc1 | 200 to 500 nM |
| CCS(=O)(=O)c1ccc(C(Oc2ccccc2OC)C(=O)Nc2nc3cc(OC)c(OC)cc3s2)cc1 (stereo not shown) | > 500 nM |
| COc1cc2nc(NC(=O)C(Oc3ccc(OCCO)cc3)c3ccc(C#N)cc3)sc2cc1OC (stereo not shown) | < 50 nM |
| CCS(=O)(=O)c1ccc(C(Oc2ccc(OC(F)(F)F)cc2)C(=O)Nc2nc3cc(OC)c(OC)cc3s2)cc1 (stereo not shown) | 200 to 500 nM |
| CCc1ccc(OC(C(=O)Nc2nc3cc(OC)c(OC)cc3s2)c2ccc(S(=O)(=O)CC)cc2)cc1 (stereo not shown) | 200 to 500 nM |
| COc1cc2nc(NC(=O)Cc3ccc(C(=O)O)cc3)sc2cc1OC | > 500 nM |
